According to US20100256148A1, “USE OF CFMS INHIBITOR FOR TREATING OR PREVENTING BONE CANCER AND THE BONE LOSS AND BONE PAIN ASSOCIATED WITH BONE CANCER” (priority 2007, published 2010):
Structures can show the parent of a compound that is named as a salt. Where two headings read alike, the source gives them in different places. Marks after values point to notes of the source that are not given here.

What was measured:
H460, MDA-MB-231, A375 = assay: Growth factor-independent proliferation of adenocarcinoma cells; type: cell-based, human
[1] = system: MRMT-1 rat mammary gland carcinoma cells; assay: Rat MRMT-1 bone metastasis model (osteolysis, osteoclasts, tumor); type: in vivo; set-up: key to Microradiograph score (five point visual score): 0 = no destruction to 5 = bi-cortical bone loss/fracture; key to Trabecular bone vol score (three point visual score): 0 = none, 1 = 1-10%, 2 = >10-<40% (normal), 3 = >40% area; key to Tumor vol score (three point visual score): 0 = none, 1 = small, 2 = moderate, 3 = large tumor; settings: for Microradiograph score (five point visual score) / Osteoclast Counts (TRAP positive cells, mean of three 200x fields) / Tumor vol score (three point visual score) / Trabecular bone vol score (three point visual score): Day 3 to Day 17, mean ± SEM
Method: Rat MRMT-1 bone metastasis model. Inoculation of rat mammary MRMT-1 adenocarcinoma cells into tibiae has been described as a bone metastasis model (Medhurst S J, et al., Pain 2002; 96:129-40. An adaptation of the model (Roudier M P, et al., Clin Exp Metastasis 2006, 23:167-75) was performed by MDS Pharma Services (Bothel, Wash.). Female Sprague-Dawley rats (Harlan Sprague Dawley, Inc., Indianapolis, Ind.) approximately 125-150 grams were acclimated one week. The animals were anesthetized with ketamine/xylazine, and the right leg area was shaved and scrubbed with chlorhexadine and 70% ethanol (SOP-SUR026). A 1-cm rostral-caudal incision was made in the skin over the top half of the tibia. Blunt-dissection exposed the proximal tibia, and a Hamilton syringe guided by a 23-gauge needle was used to inject 3 μl of saline (sham) or saline containing 3×10^4 MRMT-1 cells into the medullary cavity of the right proximal tibia of each rat. The injection site was closed with bone wax. The wound was closed with surgical staples. […] To serve as a control, a fourth group was dosed QOD sc with 0.03 mg/kg zoledronate in saline. Eight rats were dosed per group. Rats were sacrificed on Day 17. Right tibiae were excised, together with surrounding tumor tissue, and microradiographs prepared using an MX-20 x-ray system (Faxitron X-ray Corporation, Wheeling, Ill.). Microradiographs were scored for tumor-induced osteolysis as follows: 0, no signs of destruction; 1, one to three small radiolucent lesions; 2, three to six lesions and loss of medullary bone; 3, loss of medullary bone and erosion of cortical bone; 4, full thickness uni-cortical bone loss; 5, full thickness bi-cortical bone loss and/or displaced skeletal fracture. The radiographs were used to select representative bones from each group for microCT imaging. All tibia were fixed in 10% neutral buffered formalin for two days, decalcified and sectioned for histopathological evaluation. TRAP staining was performed as described previously in Liu, C., et al., 1987. […] For each tibia, the numbers of tumor-associated TRAP^+ osteoclasts were counted in the three 200×-fields with highest osteoclast frequency. A semi-quantitative three-point scoring method was used to compare treatment groups with regards to trabecular bone volume (3, >40 area; 2, >10%<40% area (normal); 1, 1-10% area; 0, none) and tumor volume (3, large; 2, moderate; 1, small; 0, none).

[2] = system: NCTC 2472 osteolytic sarcoma cells; assay: 2472 sarcoma model of secondary bone tumor: osteolysis and histology; type: in vivo, mouse; settings: for Bone erosion score (visual, scale 0-5, microradiographs): Day 15
Method: (§1) 2472 sarcoma model of secondary bone tumor pain and osteolysis. Experiments were performed on adult male C3H/HeJ mice (Jackson Laboratories, Bar Harbor, Me., USA), approximately 7-8 weeks old, weighing 25-30 g at the time of tumor cell injection. An arthrotomy was performed following induction of general anesthesia with ketamine/xylazine (2:1 ratio; intramuscular (i.m.)). A needle was inserted into the intramedullary canal to create a pathway for the sarcoma cells. A depression was then made using a pneumatic dental high speed handpiece. Mice were injected with Hanks buffered saline (HBSS) (20 ul, Sigma, St. Louis, Mo., USA) or HBSS containing the 2472 sarcoma line (ATCC, Rockville, Md., USA). The injection site is sealed with a dental amalgam plug to confine the cells within the intramedullary canal and followed by irrigation with sterile water (hypotonic solution). Finally, incision closure is achieved with a wound clip. Clips are removed at day 5 as not to interfere with behavioral testing.
The extent of tumor-induced bone reorganization (osteolysis) was radiologically assessed using Faxitron analysis (Specimen Radiography System Model MX-20, Faxitron X-ray Corporation, Wheeling, Ill., and Kodak film Min-R 2000, Rochester, N.Y.). Radiographs of tumor-bearing femora were scored on a 0 to 5 scale: (0) normal bone with no signs of destruction; (1) small pits of bone destruction (1-3 in number); (2) increased pitted appearance (3-6) and loss of medullary bone; (3) loss of medullary bone and erosion of cortical bone; (4) full thickness unicortical bone loss; (5) full thickness bicortical bone loss and displaced skeletal fracture.

[3] = system: NCTC 2472 osteolytic sarcoma cells; assay: 2472 sarcoma model: pain-related behaviors; type: in vivo, mouse
Method: as §1
A variety of behavioral measurements were used to assess the extent of bone cancer pain.
Spontaneous nocifensive behaviors: The number of spontaneous flinches and guarding, representative of nociceptive behavior, were recorded during a 2-minute observation period. Flinches are defined as number of times the animal raises its hindpaw and guarding as the amount of time animals hold the hindpaw aloft while stationary.
Palpation-induced nocifensive behaviors: Mechanical allodynia at the knee joint was evaluated by normally non-noxious palpation of the distal femur every second for 2 minutes. Following the 2-minute palpation, the mice were placed in the observation box and their palpation-induced guarding and flinching behavior was measured for an additional 2 minutes, as discussed above.

[4] = system: NCI-H460 human lung carcinoma cells; settings: for final tumor weights reduced by: at study termination
MRMT-1 cells = assay: Tactile (mechanical) allodynia in the MRMT-1 model; type: in vivo, rat
Method: Rat MRMT-1 bone metastasis model. Inoculation of rat mammary MRMT-1 adenocarcinoma cells into tibiae has been described as a bone metastasis model (Medhurst S J, et al., Pain 2002; 96:129-40. An adaptation of the model (Roudier M P, et al., Clin Exp Metastasis 2006, 23:167-75) was performed by MDS Pharma Services (Bothel, Wash.). Female Sprague-Dawley rats (Harlan Sprague Dawley, Inc., Indianapolis, Ind.) approximately 125-150 grams were acclimated one week. The animals were anesthetized with ketamine/xylazine, and the right leg area was shaved and scrubbed with chlorhexadine and 70% ethanol (SOP-SUR026). A 1-cm rostral-caudal incision was made in the skin over the top half of the tibia. […] Microradiographs were scored for tumor-induced osteolysis as follows: 0, no signs of destruction; 1, one to three small radiolucent lesions; 2, three to six lesions and loss of medullary bone; 3, loss of medullary bone and erosion of cortical bone; 4, full thickness uni-cortical bone loss; 5, full thickness bi-cortical bone loss and/or displaced skeletal fracture. […] For each tibia, the numbers of tumor-associated TRAP^+ osteoclasts were counted in the three 200×-fields with highest osteoclast frequency. […]
Pain Behavioral Assessments. […] The behavioral test for tactile allodynia, measured prior to surgery, was used for randomization of animals to the treatment groups. […]

[5] = JNJ-141 20 mpk oral twice daily
[6] = JNJ-141 60 mpk oral twice daily
[7] = 60 mg/kg oral twice daily, tumor mice
[8] = 120 mg/kg oral twice daily, sham mice
[9] = 120 mg/kg oral twice daily, tumor mice
[10] = 25 mg/kg oral twice daily, mean ± SEM
[11] = 50 mg/kg oral twice daily, mean ± SEM
[12] = 100 mg/kg oral twice daily, mean ± SEM

In the case of `CN(C)CC(=O)N1CCC(c2ccc(NC(=O)c3nc(C#N)c[nH]3)c(C3=CCCCC3)c2)CC1` [JNJ-141, 4-cyano-N-[2-(1-cyclohexen-1-yl)-4-[1-[(dimethylamino)acetyl]-4-piperidinyl]phenyl]-1H-imidazole-2-carboxamide monohydrochloride], the “growth factor-independent (serum-dependent) proliferation in culture” value (H460, MDA-MB-231, A375; 5 μM, monohydrochloride) is reported as “did not inhibit”, the IC50 (H460, MDA-MB-231, A375; Homo sapiens, H460, MDA-MB-231, A375, no stimulus, determined once) is reported as > 5 µM and the “Microradiograph score (five point visual score)” value (“Microradiograph score” for short) [1, 5] is reported as 0.75 ± 0.17. The “Osteoclast Counts (TRAP positive cells, mean of three 200x fields)” value [1, 5] was 3.7 ± 0.7, the “Tumor vol score (three point visual score)” value (from here on “Tumor vol score”) [1, 5] was 1.75 ± 0.48 and the “tumor-associated osteoclasts reduced by” value ([1]; JNJ-141 20 or 60 mg/kg oral twice daily) was “greater than 95%”. For the same compound, the “Microradiograph score” value [1, 6] was 0.83 ± 0.18, the “Osteoclast Counts (TRAP positive cells, mean of three 200x fields)” value [1, 6] was 2.6 ± 1.5 and the “Trabecular bone vol score (three point visual score)” value [1, 6] was 2.33 ± 0.23. For the same compound, the “Tumor vol score” value [1, 6] was 1.50 ± 0.55, the “Bone erosion score (visual, scale 0-5, microradiographs)” value (from here on “Bone erosion score”) ([2]; 60 mg/kg oral twice daily, NCTC 2472 tumor mice) was 3.5 and the “Macrophage Counts (CD68 positive cells)” value [2, 7] was 84** Counts per high powered field. For the same compound, the “Osteoclast Counts (TRACP positive cells)” value [2, 7] was 79** Counts per high powered field, the “Tumor area % marrow” value [2, 7] was 100% and the “Bone erosion score” value ([2]; 120 mg/kg oral twice daily, NCTC 2472 tumor mice) was 2.0**. The “Bone erosion score” value ([2]; 120 mg/kg oral twice daily, sham (saline) mice) was 0.25, the “Macrophage Counts (CD68 positive cells)” value [2, 8] was 28 Counts per high powered field and the “Osteoclast Counts (TRACP positive cells)” value [2, 8] was 41 Counts per high powered field. The “Macrophage Counts (CD68 positive cells)” value [2, 9] was 140* Counts per high powered field, the “Osteoclast Counts (TRACP positive cells)” value [2, 9] was 147 Counts per high powered field and the “Tumor area % marrow” value [2, 9] was 90%. For the same compound, the “PIF Day 7 (palpation-induced flinches over 2 minutes)” value [3, 7] was 10.3, the “PIF Day 9 (palpation-induced flinches over 2 minutes)” value [3, 7] was 14.3 and the “PIF Day 11 (palpation-induced flinches over 2 minutes)” value [3, 7] was 16.3. For the same compound, the “PIF Day 13 (palpation-induced flinches over 2 minutes)” value [3, 7] was 12.7*, the “PIF Day 15 (palpation-induced flinches over 2 minutes)” value [3, 7] was 11.7** and the “PIG Day 15 (palpation-induced guarding time over 2 minutes)” value [3, 7] was 9.1* sec. For the same compound, the “SF Day 15 (spontaneous flinches over 2 minutes)” value [3, 7] was 10*, the “SG Day 15 (spontaneous guarding time over 2 minutes)” value [3, 7] was 7.9 s and the “PIF Day 7 (palpation-induced flinches over 2 minutes)” value [3, 8] was 2.5. The “PIF Day 9 (palpation-induced flinches over 2 minutes)” value [3, 8] was 1.3, the “PIF Day 11 (palpation-induced flinches over 2 minutes)” value [3, 8] was 1.3 and the “PIF Day 13 (palpation-induced flinches over 2 minutes)” value [3, 8] was 1.8. The “PIF Day 15 (palpation-induced flinches over 2 minutes)” value [3, 8] was 1.8, the “PIG Day 15 (palpation-induced guarding time over 2 minutes)” value [3, 8] was 0.9 s and the “SF Day 15 (spontaneous flinches over 2 minutes)” value [3, 8] was 1.3. The “SG Day 15 (spontaneous guarding time over 2 minutes)” value [3, 8] was 0.6 s, the “PIF Day 7 (palpation-induced flinches over 2 minutes)” value [3, 9] was 9.5 and the “PIF Day 9 (palpation-induced flinches over 2 minutes)” value [3, 9] was 7.8**. For the same compound, the “PIF Day 11 (palpation-induced flinches over 2 minutes)” value [3, 9] was 8.5**, the “PIF Day 13 (palpation-induced flinches over 2 minutes)” value [3, 9] was 10.3** and the “PIF Day 15 (palpation-induced flinches over 2 minutes)” value [3, 9] was 9.3**. For the same compound, the “PIG Day 15 (palpation-induced guarding time over 2 minutes)” value [3, 9] was 6.4** sec, the “SF Day 15 (spontaneous flinches over 2 minutes)” value [3, 9] was 8.5** and the “SG Day 15 (spontaneous guarding time over 2 minutes)” value [3, 9] was 6.1** sec. For the same compound, the “palpation induced flinching reduced by” value ([3]; 120 mg/kg, Day 15) was “approximately 50%”, the “Mean final tumor weight, mg” value ([4]; 25 mg/kg oral twice daily (qd on weekends) from day 3, mean ± SEM) was 1,257 ± 209 mg and the “Macrophage density, % area (F4/80 positive, 200X-field)” value (shortened to “Macrophage density, % area”) [4, 10] was 4.3 ± 0.68 % area. The “Microvascular density, % area (CD31 positive)” value (from here on “Microvascular density, % area”) [4, 10] was 3.73 ± 0.81 % area, the “final tumor weights reduced by” value ([4]; 25 mg/kg oral) was 21% and the “Mean final tumor weight, mg” value ([4]; 50 mg/kg oral twice daily (qd on weekends) from day 3, mean ± SEM) was 1,070 ± 121 mg. The “Macrophage density, % area” value [4, 11] was 2.6 ± 0.57 % area, the “Microvascular density, % area” value [4, 11] was 2.10 ± 0.57 % area and the “final tumor weights reduced by” value ([4]; 50 mg/kg oral) was 32%. The “Mean final tumor weight” value ([4]; 100 mg/kg oral twice daily (qd on weekends) from day 3, mean ± SEM) was 870 ± 94 mg, the “Macrophage density, % area” value [4, 12] was 0.31 ± 0.14 % area and the “Microvascular density, % area” value [4, 12] was 1.25 ± 0.16 % area. The “final tumor weights reduced by” value ([4]; 100 mg/kg oral) was 45% and the “reduction in tumor vascularity (vessel density)” value ([4]; highest dose (100 mg/kg)) was 66%.

With `CN1CC[C@]23c4c5ccc(O)c4O[C@H]2[C@@H](O)C=C[C@H]3[C@H]1C5` [morphine] the “mechanical allodynia of affected animals” value (MRMT-1 cells; morphine, from the 2nd time point forward) was “reversed allodynia”.

With `O=P(O)(O)C(O)(Cn1ccnc1)P(=O)(O)O` [zoledronate, reference compound] the “full thickness cortical bone lesions” value ([1]; treated rats, day 17) was “not observed”, the “tumor-associated osteoclasts reduced by” value ([1]; zoledronate 0.03 mg/kg QOD sc) was 64% and the “Microradiograph score” value ([1]; zoledronate 0.03 mpk QOD sc) was 0.38 ± 0.20. The “Osteoclast Counts (TRAP positive cells, mean of three 200x fields)” value ([1]; zoledronate 0.03 mpk QOD sc) was 21.0 ± 3.2, the “Trabecular bone vol score (three point visual score)” value ([1]; zoledronate 0.03 mpk QOD sc) was 2.63 ± 0.20 and the “Tumor vol score” value ([1]; zoledronate 0.03 mpk QOD sc) was 1.63 ± 0.20. The “mechanical allodynia compared to tumor-inoculated animals” value (MRMT-1 cells; zoledronate treatment) was “decreased allodynia compared to tumor-inoculated animals but this effect did not reach statistical significance”.
